Drawing on ChEMBL document CHEMBL3774338 (J Med Chem, 2016), this text covers Stability for one compound.

This data set is described as follows: Chemical stability assessed as oxidation mediated drug degradation at room temperature exposed to air by mass spectrometric analysis. It is filed as physicochemical.

In the case of `O=c1[nH]cnc2c(-n3cc(CCN4CCC(c5cc(F)cc(F)c5)CC4)cn3)nccc12`, the Stability entry was “Unstable”.
